The source of these data is patent US8680113B2, “BMI-1 protein expression modulators” (PTC Therapeutics, Inc., priority 2008, dated 2014).

The test system of experiment [1] is Bmi-1. As to the kind of experiment: Sandwich ELISA Assay (Bmi-1 ELISA in HT-1080 cells). It counts as cell-based, human. In a few lines:
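HT-1080 cells (8000/well) were treated with compounds in 0.5% final DMSO for 40-48 h at 37°C and then lysed. Bmi-1 in lysates was measured by sandwich ELISA: overnight capture at 4°C on mouse monoclonal, rabbit anti-Bmi-1 detection, HRP anti-rabbit, TMB. OD450 was read with an OD570 reference against a recombinant GST-Bmi-1 standard curve (0-8000 pg/mL).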

The subject of experiment [2] is Bmi-1. Nature of the experiment: Cell Model Assay: Bmi-1 expression in K562. It counts as cell-based. The settings on record: K562 (chronic myelogenous leukemia). Here is the method: (§1) Using assay conditions known to those skilled in the art, the ability of the compounds described herein to reduce Bmi-1 expression in HT1080 (fibrosarcoma), U87-MG (glioblastoma), T98G (glioblastoma), K562 (chronic myelogenous leukemia) and KG1 (acute myelogenous leukemia) cell lines was tested (at test compound concentrations calculated from the ELISA assay data shown in Example 1) compared to puromycin as a control to provide the EC50 values shown in Table 2. The term “ND” means that data was not determined.

The subject of experiment [3] is Bmi-1. As to the kind of experiment: Cell Model Assay: Bmi-1 expression in KG1. It counts as cell-based. The settings on record: KG1 (acute myelogenous leukemia). As for the experimental part:
as §1

For experiment [4], the system named is Bmi-1. Nature of the experiment: Cell Model Assay: Bmi-1 expression in HT1080. The settings on record: HT1080 (fibrosarcoma). It counts as cell-based, human. As for the experimental part:
as §1

In experiment [5] the test system is MCL-Jeko. As to the kind of experiment: Mantle Cell Lymphoma Assay: cytotoxicity, Jeko. The settings on record: 72 hrs in culture. In kind it is cell-based. The text has this:
(§2) MCL cell lines Jeko, Mino, and Rec-1 were provided by American Type Culture Collection: The Bioresource Center (Manassas, Va.). […] Carlsbad, Calif.) in T-75 culture flasks. Cell concentration was maintained between 2 to 3×10^5 cells/mL. Early passage cells (passages 2-4) were used for all experiments. Ficoll-Histopaque density sedimentation (Sigma Aldrich) was used for separation of debris and purification of cell lines prior to experiments. […] The cytotoxic effect of test compounds on the MCL-cell lines was assessed by measuring cell concentration and cell viability using a Beckman Coulter Vi-Cell Counter. Controls and treated cells were harvested and counted at day 3.

In experiment [6] the test system is MCL-Mino. As to the kind of experiment: Mantle Cell Lymphoma Assay: cytotoxicity, Mino. It counts as cell-based. The settings on record: 72 hrs in culture.
Source text: as §2

For experiment [7], the system named is MCL-Rec1. Nature of the experiment: Mantle Cell Lymphoma Assay: cytotoxicity, Rec-1. The settings on record: 72 hrs in culture. It counts as cell-based.
Source text: as §2

Experiment [8] has as its system MM cell line. Nature of the experiment: Multiple Myeloma Assay. In kind it is cell-based. The settings on record: 72 hrs in culture.

A value given as a limit tells only on which side of the number the result lay.

On to `Cc1cc(Br)c(Nc2nc(-c3cnc4ccc(Cl)cn34)cs2)c(Br)c1` [Cpd 25, 4-(6-chloroimidazo[1,2-a]pyridine-3-yl)-N-(2,6-dibromo-4-methylphenyl)thiazol-2-amine], for which, in experiment [1], the IC50 was < 500 nM. Further, the EC50 in experiment [2] was 100 nM; in experiment [3], > 3000 nM.
The corresponding values for `COc1cc(Cl)c(Nc2nc(-c3cnc4ccc(Cl)cn34)cs2)c(Cl)c1` [Cpd 26, 4-(6-chloroimidazo[1,2-a]pyridine-3-yl)-N-(2,6-dichloro-4-methoxyphenyl)thiazol-2-amine] are 1000 to 3000 nM, 234 nM and 317 nM.
On to `COc1cccc(Nc2nccc(-c3cnc4ccccn34)n2)c1` [Cpd 28, 4-(imidazo[1,2-a]pyridine-3-yl)-N-(3-methoxyphenyl)pyrimidin-2-amine], for which the half-maximal inhibitory concentration (IC50) in experiment [1] is < 500 nM. Moreover, the concentration giving a half-maximal response (EC50) in experiment [2] came to 261 nM; in experiment [3], 48 nM.
The corresponding values for `Cc1nc2ccc(Cl)cn2c1-c1csc(Nc2ccc(I)cc2)n1` [Cpd 29, 4-(6-chloro-2-methylimidazo[1,2-a]pyridin-3-yl)-N-(4-iodophenyl)thiazol-2-amine] are < 500 nM, 5 nM and 304 nM.
Take `Cc1nc2ccc(Cl)cn2c1-c1csc(Nc2ccc3c(c2)OCO3)n1` [Cpd 30, N-(benzo[d][1,3]dioxol-5-yl)-4-(6-chloro-2-methylimidazo[1,2-a]pyridin-3-yl)thiazol-2-amine]: the IC50 in experiment [1] was < 500 nM. The EC50 was 4 nM in experiment [4], < 4 nM in experiment [2] and 48 nM in experiment [3].
As to `COCCOc1cc(Br)c(Nc2nc(-c3cnc4ccc(Cl)cn34)cs2)c(Br)c1` [Cpd 134, 4-(6-chloroimidazo[1,2-a]pyridin-3-yl)-N-[2,6-dibromo-4-(2-methoxyethoxy)phenyl]-1,3-thiazol-2-amine], the IC50 in experiment [1] was < 500 nM. Also, the “Cell Concentration, MCL-Jeko” value is reported as 2.11 ± 0.04 ×10^6 in experiment [5] (dose 0.004 μM); 2.11 ± 0.03 ×10^6 in experiment [5] (dose 0.037 μM); 1.97 ± 0.11 ×10^6 in experiment [5] (dose 0.11 μM); 1.95 ± 0.02 ×10^6 in experiment [5] (dose 0.33 μM); 1.82 ± 0.05 ×10^6 in experiment [5] (dose 1 μM); 1.81 ± 0.02 ×10^6 in experiment [5] (dose 3 μM). Further, the viability at 0.004 µM in experiment [5] (dose 0.004 μM, read-out: Cell Viability, MCL-Jeko) is 94.1 ± 0.23%; in experiment [6] (Homo sapiens, MINO, dose 0.004 μM, read-out: Cell Viability, MCL-Mino), 84.8 ± 0.7%; in experiment [7] (Homo sapiens, Rec1, dose 0.004 μM, read-out: Cell Viability, MCL-Rec1), 89.43 ± 0.18%; in experiment [8] (dose 0.004 μM) it was 91.17 ± 0.43%. Moreover, the viability at 0.037 µM was 94.37 ± 0.18% in experiment [5] (dose 0.037 μM, read-out: Cell Viability, MCL-Jeko); 86.2 ± 0.8% in experiment [6] (Homo sapiens, MINO, dose 0.037 μM, read-out: Cell Viability, MCL-Mino); 88.9 ± 1% in experiment [7] (Homo sapiens, Rec1, dose 0.037 μM, read-out: Cell Viability, MCL-Rec1); 90.27 ± 0.1% in experiment [8] (dose 0.037 μM). Also, the viability at 0.11 µM turned out to be 93.77 ± 0.15% in experiment [5] (dose 0.11 μM, read-out: Cell Viability, MCL-Jeko); 84.6 ± 0.5% in experiment [6] (Homo sapiens, MINO, dose 0.11 μM, read-out: Cell Viability, MCL-Mino); 90.2 ± 0.63% in experiment [7] (Homo sapiens, Rec1, dose 0.11 μM, read-out: Cell Viability, MCL-Rec1); 87.93 ± 0.5% in experiment [8] (dose 0.11 μM). The viability at 0.33 µM in experiment [5] (dose 0.33 μM, read-out: Cell Viability, MCL-Jeko) turned out to be 93.67 ± 0.13%; in experiment [6] (Homo sapiens, MINO, dose 0.33 μM, read-out: Cell Viability, MCL-Mino), 83.8 ± 0.2%; in experiment [7] (Homo sapiens, Rec1, dose 0.33 μM, read-out: Cell Viability, MCL-Rec1), 88.63 ± 0.24%; in experiment [8] (dose 0.33 μM), 86.1 ± 0.31%. Also, the viability at 1 µM is 93.87 ± 0.06% in experiment [5] (dose 1 μM, read-out: Cell Viability, MCL-Jeko); 81.4 ± 0.8% in experiment [6] (Homo sapiens, MINO, dose 1 μM, read-out: Cell Viability, MCL-Mino); 88.43 ± 0.48% in experiment [7] (Homo sapiens, Rec1, dose 1 μM, read-out: Cell Viability, MCL-Rec1); 83.47 ± 0.46% in experiment [8] (dose 1 μM). Besides, the viability at 3 µM in experiment [5] (dose 3 μM, read-out: Cell Viability, MCL-Jeko) was 92.4 ± 0.22%; in experiment [6] (Homo sapiens, MINO, dose 3 μM, read-out: Cell Viability, MCL-Mino) it was 79 ± 0.8%; in experiment [7] (Homo sapiens, Rec1, dose 3 μM, read-out: Cell Viability, MCL-Rec1), 86.67 ± 0.84%; in experiment [8] (dose 3 μM), 76.5 ± 1.48%. The “Cell Concentration, MCL-Mino” value in experiment [6] (dose 0.004 μM) is recorded as 0.63 ± 0.01 ×10^6; in experiment [6] (dose 0.037 μM) it was 0.65 ± 0.01 ×10^6; in experiment [6] (dose 0.11 μM), 0.65 ± 0.01 ×10^6; in experiment [6] (dose 0.33 μM), 0.59 ± 0.01 ×10^6; in experiment [6] (dose 1 μM), 0.56 ± 0.02 ×10^6; in experiment [6] (dose 3 μM) it was 0.47 ± 0.02 ×10^6. Moreover, the “Cell Concentration, MCL-Rec1” value in experiment [7] (dose 0.004 μM) is reported as 0.84 ± 0.02 ×10^6; in experiment [7] (dose 0.037 μM) it was 0.86 ± 0.02 ×10^6; in experiment [7] (dose 0.11 μM) it was 0.90 ± 0.01 ×10^6; in experiment [7] (dose 0.33 μM), 0.85 ± 0.02 ×10^6; in experiment [7] (dose 1 μM), 0.78 ± 0.03 ×10^6; in experiment [7] (dose 3 μM) it was 0.73 ± 0.02 ×10^6. Besides, the “Cell Concentration, MM cell line” value in experiment [8] (dose 0.004 μM) is reported as 1.36 ± 0.01 ×10^6; in experiment [8] (dose 0.037 μM), 1.33 ± 0.01 ×10^6; in experiment [8] (dose 0.11 μM) it was 1.28 ± 0.01 ×10^6; in experiment [8] (dose 0.33 μM) it was 1.18 ± 0.04 ×10^6; in experiment [8] (dose 1 μM), 1.06 ± 0.01 ×10^6; in experiment [8] (dose 3 μM) it was 0.75 ± 0.03 ×10^6.
Consider `COc1ccc(Nc2nccc(-c3cnc4ncccn34)n2)cc1` [Cpd 261, 4-(imidazo[1,2-a]pyrimidin-3-yl)-N-(4-methoxyphenyl)pyrimidin-2-amine], for which the IC50 in experiment [1] is < 500 nM.
Turning to `CCOc1ccc(Nc2nccc(-c3cnc4ncccn34)n2)cc1` [Cpd 262, N-(4-ethoxyphenyl)-4-(imidazo[1,2-a]pyrimidin-3-yl)pyrimidin-2-amine], in experiment [1], the IC50 is < 500 nM.
Still for that read-out and setting: the result for `CCN(CC)c1ccc(Nc2nccc(-c3cnc4ncccn34)n2)cc1` [Cpd 263, N,N-diethyl-N′-[4-(imidazo[1,2-a]pyrimidin-3-yl)pyrimidin-2-yl]benzene-1,4-diamine] reads < 500 nM; that for `CN(C)c1cccc(Nc2nccc(-c3cnc4ncccn34)n2)c1` [Cpd 264, N′-[4-(imidazo[1,2-a]pyrimidin-3-yl)pyrimidin-2-yl]-N,N-dimethylbenzene-1,3-diamine], < 500 nM.
In experiment [1], `CN(C)c1ccc(Nc2nccc(-c3cnc4ncccn34)n2)cc1` [Cpd 265, N′-[4-(imidazo[1,2-a]pyrimidin-3-yl)pyrimidin-2-yl]-N,N-dimethylbenzene-1,4-diamine] came in with an IC50 of 500 to 1000 nM.
With `Fc1ccccc1Nc1nccc(-c2cnc3ncccn23)n1` [Cpd 266, N-(2-fluorophenyl)-4-(imidazo[1,2-a]pyrimidin-3-yl)pyrimidin-2-amine], in experiment [1], the 50% inhibitory concentration (IC50) is < 500 nM.
On the same count and under the same terms, as for `Fc1cccc(Nc2nccc(-c3cnc4ncccn34)n2)c1` [Cpd 267, N-(3-fluorophenyl)-4-(imidazo[1,2-a]pyrimidin-3-yl)pyrimidin-2-amine], the figure is < 500 nM.
With `Fc1ccc(Nc2nccc(-c3cnc4ncccn34)n2)cc1` [Cpd 268, N-(4-fluorophenyl)-4-(imidazo[1,2-a]pyrimidin-3-yl)pyrimidin-2-amine], the IC50 in experiment [1] was < 500 nM.
Turning to `Clc1cccc(Nc2nccc(-c3cnc4ncccn34)n2)c1` [Cpd 269, N-(3-chlorophenyl)-4-(imidazo[1,2-a]pyrimidin-3-yl)pyrimidin-2-amine], in experiment [1], the concentration for half-maximal inhibition (IC50) was < 500 nM.
On the same count and under the same terms, the result for `Brc1ccc(Nc2nccc(-c3cnc4ncccn34)n2)cc1` [Cpd 270, N-(4-bromophenyl)-4-(imidazo[1,2-a]pyrimidin-3-yl)pyrimidin-2-amine] reads < 500 nM.
Take `CCc1nc2ncccn2c1-c1ccnc(Nc2ccc(Br)cc2)n1` [Cpd 271, N-(4-bromophenyl)-4-(2-ethylimidazo[1,2-a]pyrimidin-3-yl)pyrimidin-2-amine]: in experiment [1], the IC50 is < 500 nM.
Still for that read-out and setting: as for “N-(4-ethoxyphenyl)-4-(2-methylimidazo[1,2-a]pyridin-3-yl)pyrimidin-2-amine [Cpd 128]”, the figure is < 500 nM.
